Results from patent publication US8227414B2 ([…].R.L., priority 2005, dated 2012).

Legend:
[1] = biological target: T1, human recombinant NOP receptor (Homo sapiens, UniProt P41146); experiment: Receptor binding, displacement of tritiated N/OFQ on CHOhNOP membranes
T1 construct: expressed in transfected cells; host or cells: CHO cells (CHOhNOP), membranes

[2] = biological target: T1, human recombinant NOP receptor; experiment: Stimulation of GTP?S binding on CHOhNOP membranes; type: biochemical
mouse vas deferens = experiment: Inhibition of the twitch induced by electrical stimulation of mouse vas deferens; type: cell-based
Procedure: The compounds were tested in vitro on Hamster oocytes membranes expressing the human recombinant NOP receptor (CHOhNoP) (receptor binding experiments and GTP?S binding stimulation experiments) and on the mouse vas deferens after electrical stimulation.

[3] = test system: vas deferens of knockout mice for the NOP receptor (NOP−/−); experiment: Electrically stimulated vas deferens from NOP receptor knockout mice; type: cell-based, mouse
[4] = biological target: T2, human recombinant opioid receptor mu (MOP) (Homo sapiens, UniProt P35372); experiment: Receptor binding on CHO membranes, [3H]-Diprenorphine; conditions: Table 3; CHO cells; [3H]-Diprenorphine
T2 construct: expressed in transfected cells; host or cells: CHO cells, membranes

[5] = biological target: T3, human recombinant opioid receptor delta (DOP) (Homo sapiens, UniProt P41143); experiment: as above; conditions: Table 3; CHO cells; [3H]-Diprenorphine
T3 construct: expressed in transfected cells; host or cells: CHO cells, membranes

[6] = biological target: T4, human recombinant opioid receptor kappa (KOP) (Homo sapiens, UniProt P41145); experiment: as above; conditions: Table 3, CHO cells
T4 construct: expressed in transfected cells; host or cells: CHO cells, membranes

mice [7] = experiment: Tail withdrawal assay in mice; type: in vivo, mouse
Procedure: (§1) Control animals received one i.c.v. injection of saline (2 μl/mouse). Each point represents the mean±s.e.m. of at least 4 experiments.
1) tail withdrawal assay, according to the experimental protocols described by Calò et al., (Br J Pharmacol 125, 373-378, 1998) and Rizzi et al. (Clin Pharmacol 18, 56, 2004);

mice [8] = experiment: Food intake in fed mice; type: in vivo, mouse
Source text: 2) measurement of food intake in fed animals, as described by Rizzi et al. (National Congress of the Italian Society of Neuroscience and joint Italian-Swedish Neuroscience Meetings, Ischia (Napoli) 1-4 Oct. 2005);

mice [9] = experiment: Spontaneous locomotor activity in mice; type: in vivo, mouse
Procedure: as §1
3) assay for measurement of spontaneous locomotor activity, as described by Rizzi et al., (Naunyn Schmiedebergs Arch Pharmacol 363, 161-165, 2001.

[10] = Metabolic stability in mouse plasma; type: in vitro ADME
Procedure: (§2) Plasma and brain tissue samples were obtained from male Swiss mice (Morini, Reggio Emilia, Italy, 25-30 g). The animal, sacrificed by ether anesthesia, was perfused with physiological heparin solution injected through a needle placed in the left ventricle. Blood was then withdrawn and was centrifuged at 14000×g for 2 minutes at room temperature. After separation from the pellet, the plasma was aliquoted and stocked at −80° C. After blood withdrawal, the animal was perfused further with a physiological solution for 2 minutes before brain removal. The brain tissue was homogenized in 5 vol. (w/v) of Tris/HCl (50 mM, pH 7.4, 0° C.) with a ultra-Turrax (Janke Kunkel, Staufen, FRG) 3 times for 15 seconds each. The supernatant obtained by centrifugation (3000×g for 15 min at 4° C.) was decanted and then stocked at −80° C.
(§3) The protein content of the preparations, determined by the Bradford method, as described in Anal. Biochem., 72, 248-254, 1976, was approximately 8 μg/μl for the brain homogenate and 17 μg/μl for the plasma
(§4) An aliquot of 100 μl solution of each peptide (3 mg/500 μl Tris) was incubated (at a final concentration of […]) with brain homogenate or plasma (450 μl) in a total volume of 1 ml, containing Tris/HCl 50 mM pH 7.4 buffer. Incubation of the aliquots was carried out at 37° C. for various periods up to 240 min. At different incubation times, an aliquot of the solution (100 μl) was removed and the degradation was blocked by addition of 4.5% TFA solution (200 μl). After centrifugation (3000 rpm for 15 minutes) an aliquot (100 μl) of supernatant was injected into RP-HPLC. HPLC analysis was performed in a Kromasil 100-5C18 column (4.6×250 mm) using a Beckman System Gold chromatography system equipped with a variable wave length UV detector.
(§5) The experimental conditions for elution included a gradient analysis with water (solvent A) and acetonitrile (solvent B), both containing 0.1% TFA, at a flow rate of 0.7 ml/min. The following protocol was used for gradient analysis, selected on the basis of the physico-chemical characteristics of the analyte: linear gradient from 5% to 40% B in 20 minutes; linear gradient from 40% to 60% B in 5 minutes; linear gradient from 60% to 5% B in 5 minutes. The eluate was monitored at 220 nm. The half life (T1/2) was obtained by linear regression with the least square method, diagramming the peak areas of each derivative as a function of the incubation times, using at least five points for each analysis.

[11] = Metabolic stability in mouse brain homogenate; type: in vitro ADME; conditions: male, Swiss, pH 7.4, mouse brain homogenate, 37° C., mean±standard deviation, read-out: T½ Brain
Procedure: as §2, §3, §4, §5

[12] = Table 2, wild type (NOP+/+) mice

T1 sequence (P41146 whole entry): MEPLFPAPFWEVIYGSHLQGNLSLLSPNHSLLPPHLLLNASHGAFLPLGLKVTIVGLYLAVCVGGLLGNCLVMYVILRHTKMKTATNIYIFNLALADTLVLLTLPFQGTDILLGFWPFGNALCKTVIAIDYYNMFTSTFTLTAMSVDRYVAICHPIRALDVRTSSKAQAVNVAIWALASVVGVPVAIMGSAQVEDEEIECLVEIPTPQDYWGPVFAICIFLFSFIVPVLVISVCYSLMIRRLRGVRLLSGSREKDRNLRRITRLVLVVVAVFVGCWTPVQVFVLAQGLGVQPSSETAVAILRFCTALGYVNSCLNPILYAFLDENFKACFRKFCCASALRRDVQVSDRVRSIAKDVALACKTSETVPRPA
T4 sequence (P41145 whole entry): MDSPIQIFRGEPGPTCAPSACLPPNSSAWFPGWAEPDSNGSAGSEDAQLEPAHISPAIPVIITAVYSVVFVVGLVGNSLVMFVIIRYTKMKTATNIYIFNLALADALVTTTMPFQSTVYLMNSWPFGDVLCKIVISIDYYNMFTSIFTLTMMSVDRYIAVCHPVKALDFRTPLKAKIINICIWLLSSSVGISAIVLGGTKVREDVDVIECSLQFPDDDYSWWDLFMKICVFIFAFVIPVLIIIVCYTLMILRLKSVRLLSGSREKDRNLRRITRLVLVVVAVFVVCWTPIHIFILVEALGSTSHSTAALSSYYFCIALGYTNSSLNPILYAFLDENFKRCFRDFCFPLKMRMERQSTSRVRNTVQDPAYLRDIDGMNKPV
T2 sequence (P35372 whole entry): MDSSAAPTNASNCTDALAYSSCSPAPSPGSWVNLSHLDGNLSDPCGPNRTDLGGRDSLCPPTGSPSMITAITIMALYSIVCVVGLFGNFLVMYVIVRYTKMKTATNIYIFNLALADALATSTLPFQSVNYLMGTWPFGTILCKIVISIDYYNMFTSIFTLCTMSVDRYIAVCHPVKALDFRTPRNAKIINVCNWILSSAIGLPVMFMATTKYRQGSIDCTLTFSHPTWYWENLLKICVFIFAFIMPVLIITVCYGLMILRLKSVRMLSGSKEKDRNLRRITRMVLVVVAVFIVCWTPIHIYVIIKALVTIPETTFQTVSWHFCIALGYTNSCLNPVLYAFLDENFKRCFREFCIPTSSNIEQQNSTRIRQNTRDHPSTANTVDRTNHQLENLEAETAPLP
T3 sequence (P41143 whole entry): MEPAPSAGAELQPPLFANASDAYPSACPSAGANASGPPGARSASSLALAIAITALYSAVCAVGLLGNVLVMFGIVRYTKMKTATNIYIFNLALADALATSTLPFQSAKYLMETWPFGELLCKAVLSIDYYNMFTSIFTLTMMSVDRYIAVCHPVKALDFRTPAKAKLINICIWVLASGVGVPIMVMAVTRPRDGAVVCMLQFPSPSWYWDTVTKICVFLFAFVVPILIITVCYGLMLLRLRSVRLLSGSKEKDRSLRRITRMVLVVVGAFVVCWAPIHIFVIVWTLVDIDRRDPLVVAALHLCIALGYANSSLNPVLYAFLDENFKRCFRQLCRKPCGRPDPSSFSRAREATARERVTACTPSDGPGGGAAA

## C[C@H](NC(=O)[C@H](CO)NC(=O)[C@H](CCCCN)NC(=O)[C@H](CCCNC(=N)N)NC(=O)C(C)(C)NC(=O)CNC(=O)[C@@H](NC(=O)[C@H](Cc1ccc(F)cc1)NC(=O)CNC(=O)CNC(=O)[C@@H](N)Cc1ccccc1)[C@@H](C)O)C(=O)N[C@@H](CCCNC(=N)N)C(=O)N[C@@H](CCCCN)C(=O)N[C@@H](CCCNC(=N)N)C(=O)N[C@@H](CCCCN)C(=O)N[C@@H](CC(N)=O)C(=O)N[C@@H](CCC(N)=O)C(N)=O [UFP-112, [(pF)Phe^4,Aib^7,Arg^14,Lys^15]N/OFQ-NH2]
[1]; Table 1, membrane of CHOhNOP cells, tritiated N/OFQ
  Receptor binding PKi: 10.55
[1]; Table 3, CHO cells, [3H]N/OFQ
  pKi NOP: 10.55
[2]; Table 1, membrane of CHOhNOP cells
  Stimulation upon binding GTP?S, Agonist pEC50: 10.55
[2]; read-out: Stimulation upon binding GTP?S, Agonist Emax
  Emax: 118 ± 9%
Mouse vas deferens; Table 1
  Inhibition of the twitch induced by electric stimulation, Agonist Emax: −85 ± 2%
  Inhibition of the twitch induced by electric stimulation, Agonist pEC50: 9.48
Mouse vas deferens; [12]
  Emax NOP+/+: 93 ± 3%
  pEC50 NOP+/+: 8.94
Mouse vas deferens; compared with N/OFQ, equi-effective concentrations
  Kinetics of action and reversibility of the effects after washing: much slower
Mouse vas deferens; mouse vas deferens
  Increase in potency compared to the reference sequence: more than 100 fold
Mouse vas deferens; naloxone present
  Action in the mouse vas deferens in presence of naloxone: not modified
[3]
  Inhibitory effect on the contraction induced by electrical stimulation in NOP−/− vas deferens: disappeared
[3]; Table 2
  pEC50 NOP−/−: <6
[4]
  pKi MOP: 7.13
[5]
  pKi DOP: 6.37
[6]
  pKi KOP: 8.36
Mice [7]; 0.001-0.1 nmol, intracerebroventricular
  Effect in tail withdrawal assay, i.c.v.: pronociceptive effects
Mice [7]; 0.001-0.1 nmol, intrathecal
  Effect in tail withdrawal assay, i.t.: antinociceptive effects
Mice [7]; NOP−/− mice
  Tail withdrawal effects in NOP−/− mice: absent
Mice [7]; equi-effective doses
  Duration of action in tail withdrawal test: > 120 min
Mice [7]; stated for each in vivo assay (tail withdrawal, food intake, locomotor activity)
  Potency in vivo relative to N/OFQ: about 100 fold
Mice [8]; NOP−/− mice
  Hyperphagic effects in NOP−/− mice: absent
Mice [8]; fed mice
  Potency relative to N/OFQ in food intake: 100 fold
Mice [8]; fed mice, equi-effective doses
  Effect on food intake: significant increase
Mice [9]; 0.1 nmol i.c.v.
  Time after which locomotor effect ended: about 6 h
Mice [9]; i.c.v., N/OFQ 10 nmol, UFP-112 0.1 nmol
  Effect on spontaneous locomotor activity: inhibited the locomotor activity
[10]; male, Swiss, mouse, plasma, pH 7.4, mouse plasma, 37° C., mean±standard deviation, read-out: T½ Plasma
  half-life at 6 μg/μl: 2.78 ± 0.15 h
[10]; mouse plasma
  Plasma T½ compared to N/OFQ: almost three-fold longer
[11]
  half-life at 6 μg/μl: 0.188 ± 0.0233 h
